The target in this test is T1, SMARCA2 (Homo sapiens, UniProt P51531).
T1 construct: endogenous in cells; host or cells: HT1080 (CRISPR HiBiT knock-in clone, generated in house)
Briefly: SMARCA2 HiBiT degradation assay (cellular). Particulars: table head names A549; for DC50: 6 h incubation, HiBiT-tagged SMARCA2, luminescence read-out, read-out: HiBit A549 SMARCA2 IP (nM) 6 h; for Emax: A549, 6 h incubation, Emax = amount of residual protein remaining in the cell following compound treatment. The format is cell-based. A general note: The HiBiT peptide binds its large partner to form an active luciferase.

T1 sequence (P51531 whole entry): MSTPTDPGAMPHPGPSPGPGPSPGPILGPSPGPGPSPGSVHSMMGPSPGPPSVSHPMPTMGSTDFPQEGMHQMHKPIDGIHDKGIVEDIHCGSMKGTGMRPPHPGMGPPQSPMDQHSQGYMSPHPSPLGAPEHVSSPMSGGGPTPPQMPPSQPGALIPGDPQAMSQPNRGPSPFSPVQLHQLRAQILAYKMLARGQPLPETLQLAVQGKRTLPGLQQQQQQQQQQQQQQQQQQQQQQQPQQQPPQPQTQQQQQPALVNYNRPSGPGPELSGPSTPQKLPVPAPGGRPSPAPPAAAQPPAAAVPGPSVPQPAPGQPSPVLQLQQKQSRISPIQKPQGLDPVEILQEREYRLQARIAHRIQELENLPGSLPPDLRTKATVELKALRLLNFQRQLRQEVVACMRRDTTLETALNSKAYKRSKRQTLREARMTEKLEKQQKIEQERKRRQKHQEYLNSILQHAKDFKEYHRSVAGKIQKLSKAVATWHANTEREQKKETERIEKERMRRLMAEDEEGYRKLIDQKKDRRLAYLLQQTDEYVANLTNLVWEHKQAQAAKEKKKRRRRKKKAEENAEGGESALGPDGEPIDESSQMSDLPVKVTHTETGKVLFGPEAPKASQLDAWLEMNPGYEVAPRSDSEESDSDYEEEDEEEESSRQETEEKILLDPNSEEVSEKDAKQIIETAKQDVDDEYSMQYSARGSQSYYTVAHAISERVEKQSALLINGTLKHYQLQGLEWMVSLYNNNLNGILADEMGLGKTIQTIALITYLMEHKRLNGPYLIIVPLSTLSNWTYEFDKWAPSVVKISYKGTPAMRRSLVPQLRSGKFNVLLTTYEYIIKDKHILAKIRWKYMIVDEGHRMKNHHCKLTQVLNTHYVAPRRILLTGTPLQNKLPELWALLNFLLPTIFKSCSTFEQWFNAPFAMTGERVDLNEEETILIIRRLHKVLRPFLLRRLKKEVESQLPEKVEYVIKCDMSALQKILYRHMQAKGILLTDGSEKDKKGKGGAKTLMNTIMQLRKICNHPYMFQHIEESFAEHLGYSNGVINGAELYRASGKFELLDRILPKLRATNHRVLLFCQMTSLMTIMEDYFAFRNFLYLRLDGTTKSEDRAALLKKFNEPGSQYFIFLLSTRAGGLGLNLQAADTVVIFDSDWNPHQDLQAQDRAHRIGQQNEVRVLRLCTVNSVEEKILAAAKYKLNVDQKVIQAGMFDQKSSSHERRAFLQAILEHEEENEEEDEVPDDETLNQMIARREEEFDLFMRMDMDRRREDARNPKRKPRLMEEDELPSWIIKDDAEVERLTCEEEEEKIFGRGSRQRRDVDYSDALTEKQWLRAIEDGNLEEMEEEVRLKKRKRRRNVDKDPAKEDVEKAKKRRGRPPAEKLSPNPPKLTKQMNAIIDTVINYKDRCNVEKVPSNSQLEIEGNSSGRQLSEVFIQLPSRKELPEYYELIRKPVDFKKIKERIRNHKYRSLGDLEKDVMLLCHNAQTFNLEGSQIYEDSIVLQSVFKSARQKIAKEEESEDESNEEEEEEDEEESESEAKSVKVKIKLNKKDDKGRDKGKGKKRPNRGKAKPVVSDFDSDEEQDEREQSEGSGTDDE

The Emax is the size of the effect at its maximum, as opposed to the concentration needed. As to `Nc1nnc(-c2ccccc2O)cc1O[C@H]1CCCN(c2ccc(N3CCN(CCCCC(=O)N4CCC(Cn5cc(COc6cccc7c6C(=O)N(C6CCC(=O)NC6=O)C7=O)nn5)CC4)CC3)cc2)C1` (mixture of isomers) [Example 135, 2-(2,6-dioxo-3-piperidyl)-4-[[1-[[1-[5-[4-[4-[rac-(3S)-3-[3-amino-6-(2-hydroxyphenyl)pyridazin-4-yl]oxy-1-piperidyl]phenyl]piperazin-1-yl]pentanoyl]-4-piperidyl]methyl]triazol-4-yl]methoxy]isoindoline-1,3-dione], the DC50 was found to be 382 nM and the Emax was 35%.

On to `Nc1nnc(-c2ccccc2O)cc1N1CC2CCC(C1)N2c1cccc(CN2CCN(C(=O)CCC3CCN(c4ccc5c(c4)C(=O)N(C4CCC(=O)NC4=O)C5=O)CC3)CC2)c1` (racemic) [Example 47, rac-5-[4-[3-[4-[[3-[3-[3-Amino-6-(2-hydroxyphenyl)pyridazin-4-yl]-3,8-diazabicyclo[3.2.1]octan-8-yl]phenyl]methyl]piperazin-1-yl]-3-oxo-propyl]-1-piperidyl]-2-(2,6-dioxo-3-piperidyl)isoindoline-1,3-dione], for which the DC50 was 17 nM and the Emax worked out at 42%.

For the compound `Nc1nnc(-c2ccccc2O)cc1N1CCC(C(=O)NCC2CCN(C(=O)C3CCN(c4ccc5c(c4)C(=O)N(C4CCC(=O)NC4=O)C5=O)CC3)CC2)(c2ccccc2)CC1` (centres unmarked) [Example 86, 1-[3-amino-6-(2-hydroxyphenyl)pyridazin-4-yl]-N-[[1-[1-[2-(2,6-dioxo-3-piperidyl)-1,3-dioxo-isoindolin-5-yl]piperidine-4-carbonyl]-4-piperidyl]methyl]-4-phenyl-piperidine-4-carboxamide], the DC50 was found to be 59 nM and the Emax was 37%.

For the compound `Nc1nnc(-c2ccccc2O)cc1N1CC2CCC(C1)N2c1cccc(OCCN2CCN(C(=O)N3CCC(c4ccc(NC5CCC(=O)NC5=O)cc4)CC3)CC2)c1` (racemic) [Example 80, rac-3-[4-[1-[4-[2-[3-[3-[3-amino-6-(2-hydroxyphenyl)pyridazin-4-yl]-3,8-diazabicyclo[3.2.1]octan-8-yl]phenoxy]ethyl]piperazine-1-carbonyl]-4-piperidyl]anilino]piperidine-2,6-dione], the DC50 is 11 nM and the maximal effect (Emax) is 51%.

As to `CC(Oc1cccc2c1C(=O)N(C1CCC(=O)NC1=O)C2=O)c1cn(CCCCCCOCCN2CCN(c3ccc(N4CCC[C@H](Oc5cc(-c6ccccc6O)nnc5N)C4)cc3)CC2)nn1` (mixture of isomers) [Example 202, 2-(2,6-dioxo-3-piperidyl)-4-[1-[1-[6-[2-[4-[4-[rac-(3S)-3-[3-amino-6-(2-hydroxyphenyl)pyridazin-4-yl]oxy-1-piperidyl]phenyl]piperazin-1-yl]ethoxy]hexyl]triazol-4-yl]ethoxy]isoindoline-1,3-dione], the DC50 amounted to 107 nM and the maximum response (Emax) worked out at 44%.

On to `Nc1nnc(-c2ccccc2O)cc1N1CC2CCC(C1)N2c1cccc(OCCN2CCN(C(=O)N3CCN(c4ccc(OC5CCC(=O)NC5=O)cc4)CC3)CC2)c1` (racemic) [Example 51, rac-3-[4-[4-[4-[2-[3-[3-[3-amino-6-(2-hydroxyphenyl)pyridazin-4-yl]-3,8-diazabicyclo[3.2.1]octan-8-yl]phenoxy]ethyl]piperazine-1-carbonyl]piperazin-1-yl]phenoxy]piperidine-2,6-dione], for which the DC50 was 86 nM and the Emax worked out at 54%.

Take `Nc1nnc(-c2ccccc2O)cc1N1CC2CCC(C1)N2c1cccc(CN2CCN(C(=O)CN3CCC(c4ccc(NC5CCC(=O)NC5=O)cc4)CC3)CC2)c1` (racemic) [Example 149, rac-3-[4-[1-[2-[4-[[3-[3-[3-Amino-6-(2-hydroxyphenyl)pyridazin-4-yl]-3,8-diazabicyclo[3.2.1]octan-8-yl]phenyl]methyl]piperazin-1-yl]-2-oxo-ethyl]-4-piperidyl]anilino]piperidine-2,6-dione]: the DC50 was 18 nM and the Emax came out at 40%.

Consider `Nc1nnc(-c2ccccc2O)cc1N1CCN(c2ccccc2)C(C(=O)NCC2CCN(C(=O)C3CCN(c4ccc5c(c4)C(=O)N(C4CCC(=O)NC4=O)C5=O)CC3)CC2)C1` (centres unmarked) [Example 82, 4-(3-amino-6-(2-hydroxyphenyl)pyridazin-4-yl)-N-((1-(1-(2-(2,6-dioxopiperidin-3-yl)-1,3-dioxoisoindolin-5-yl)piperidine-4-carbonyl)piperidin-4-yl)methyl)-1-phenylpiperazine-2-carboxamide], for which the DC50 was found to be 190 nM and the Emax stood at 65%.

On to `Nc1nnc(-c2ccccc2O)cc1N1CC2CCC(C1)N2c1cccc(CN2CCN(C(=O)CC3CCN(c4ccc5c(c4)C(=O)N(C4CCC(=O)NC4=O)C5=O)CC3)CC2)c1` (racemic) [Example 48, rac-5-[4-[2-[4-[[3-[3-[3-Amino-6-(2-hydroxyphenyl)pyridazin-4-yl]-3,8-diazabicyclo[3.2.1]octan-8-yl]phenyl]methyl]piperazin-1-yl]-2-oxo-ethyl]-1-piperidyl]-2-(2,6-dioxo-3-piperidyl)isoindoline-1,3-dione], for which the DC50 is 15 nM and the Emax worked out at 45%.

In the case of `Nc1nnc(-c2ccccc2O)cc1N1CCC(C(=O)N2CC3(CCN(C(=O)C4CCN(c5ccc6c(c5)C(=O)N(C5CCC(=O)NC5=O)C6=O)CC4)C3)C2)(c2ccccc2)CC1` (centres unmarked) [Example 186, 5-(4-(2-(1-(3-amino-6-(2-hydroxyphenyl)pyridazin-4-yl)-4-phenylpiperidine-4-carbonyl)-2,6-diazaspiro[3.4]octane-6-carbonyl)piperidin-1-yl)-2-(2,6-dioxopiperidin-3-yl)isoindoline-1,3-dione], the DC50 is 148 nM and the Emax was 42%.

For the compound `CC(Oc1cccc2c1C(=O)N(C1CCC(=O)NC1=O)C2=O)c1cn(CCCCCCCCCN2CCN(c3ccc(N4CCC[C@H](Oc5cc(-c6ccccc6O)nnc5N)C4)cc3)CC2)nn1` (mixture of isomers) [Example 126, 2-(2,6-dioxo-3-piperidyl)-4-[1-[1-[9-[4-[4-[rac-(3S)-3-[3-amino-6-(2-hydroxyphenyl)pyridazin-4-yl]oxy-1-piperidyl]phenyl]piperazin-1-yl]nonyl]triazol-4-yl]ethoxy]isoindoline-1,3-dione], the DC50 was determined as 73 nM and the Emax came out at 26%.

As for `Nc1nnc(-c2ccccc2O)cc1N1CCC(C(=O)NCC2CCN(CC3CCN(c4ccc5c(c4)C(=O)N(C4CCC(=O)NC4=O)C5=O)CC3)CC2)(c2ccccc2)C1` (stereo not drawn) [Example 124, 1-[3-amino-6-(2-hydroxyphenyl)pyridazin-4-yl]-N-[[1-[[l-[2-(2,6-dioxo-3-piperidyl)-1,3-dioxo-isoindolin-5-yl]-4-piperidyl]methyl]-4-piperidyl]methyl]-3-phenyl-pyrrolidine-3-carboxamide], the DC50 amounted to 272 nM and the Emax is 63%.

Turning to `Nc1nnc(-c2ccccc2O)cc1N1CCC(C(=O)N2CC3(CCN(C(=O)COc4ccc5c(c4)C(=O)N(C4CCC(=O)NC4=O)C5=O)C3)C2)(c2ccccc2)CC1` (centres unmarked) [Example 189, 5-(2-(2-(1-(3-amino-6-(2-hydroxyphenyl)pyridazin-4-yl)-4-phenylpiperidine-4-carbonyl)-2,6-diazaspiro[3.4]octan-6-yl)-2-oxoethoxy)-2-(2,6-dioxopiperidin-3-yl)isoindoline-1,3-dione], the DC50 is 1370 nM and the Emax worked out at 62%.
